These results are taken from patent US7705030B2, “Amino-5-(5-membered)hetero-arylimidazolone compounds and the use thereof for β-secretase modulation” (Wyeth LLC, priority 2005, dated 2010).

One may read the IC50 as the concentration that gives 50% inhibition. Read a low IC50 as greater potency. In general, melting point refers to the temperature of the solid-liquid transition.

Structures are written as SMILES. Counter-ions that a name gives are not always drawn.

In data set [1] the target is human BACE1 (Homo sapiens, UniProt P56817). As to the kind of experiment: Fluorescent kinetic assay: Evaluation of BACE-1 Binding Affinity of Test Compounds. Format: biochemical. Conditions: 10 nM enzyme, 25 μM substrate WABC-6, 50 mM Na-Acetate pH 4.5, room temperature. The method, then:
Evaluation of BACE-1 Binding Affinity of Test Compounds
Fluorescent Kinetic Assays
Final Assay Conditions: 10 nM human BACE1 (or 10 nM Murine BACE1, 1.5 nM human BACE2), 25 μM substrate (WABC-6, MW 1549.6, from AnaSpec), Buffer: 50 mM Na-Acetate, pH 4.5, 0.05% CHAPS, 25% PBS, room temperature. Na-Acetate was from Aldrich, Cat.# 24, 124-5, CHAPS was from Research Organics, Cat. # 1304C 1×, PBS was from Mediatech (Cellgro), Cat# 21-031-CV, peptide substrate Abz[…]pa was from AnaSpec, Peptide Name: WABC-6 Determination of stock substrate (Abz[…]pa) concentration: ˜25 mM stock solution is made in DMSO using the peptide weight and MW, and diluted to ˜25 μM (1:1000) in 1×PBS. Concentration is determined by absorbance at 354 nm using an extinction coefficient ε of 18172 M^−1 cm^−1, the concentration of stock substrate is corrected, and the substrate stock stored in small aliquots in −80° C. [Substrate Stock]=ABS^354 nm*10^6/18172 (in […]) The extinction coefficient ε^354 nm was adapted from TACE peptide substrate, which had the same quencher-fluorophore pair.
Determination of Stock Enzyme Concentration: the stock concentration of each enzyme is determined by absorbance at 280 nm using an ε of 64150 M^−1 cm^−1 for hBACE1 and MuBACE1, 62870 M^−1 cm^−1 for hBACE2 in 6 M Guanidinium Hydrochloride (from Research Organics, Cat. # 5134G-2), pH ˜6. The extinction coefficient ε^280 nm for each enzyme was calculated based on known amino acid composition and published extinction coefficients for Trp ([…]) and Tyr ([…]) residues (Anal. Biochem. 182, 319-326).
Dilution and mixing steps: total reaction volume: 100 μL
2× inhibitor dilutions in buffer A(66.7 mM Na-Acetate, pH 4.5, 0.0667% CHAPS) were prepared,
4× enzyme dilution in buffer A(66.7 mM Na-Acetate, pH 4.5, 0.0667% CHAPS) were prepared,
100 μM substrate dilution in 1×PBS was prepared, and
50 μL 2× Inhibitor, 25 μL 100 μM substrate are added to each well of 96-well plate (from DYNEX Technologies, VWR #: 11311-046), immediately followed by 25 μL 4× enzyme (added to the inhibitor and substrate mix), and the fluorescence readings are initiated.
Fluorescence Readings: Readings at λex 320 nm and λem 420 nm are taken every 40 sec for 30 min at room temperature and the linear slope for substrate cleavage rate (vi) determined.
Testing at least 10 different inhibitor concentrations is preferred.

human BACE1, sequence (P56817 46-501): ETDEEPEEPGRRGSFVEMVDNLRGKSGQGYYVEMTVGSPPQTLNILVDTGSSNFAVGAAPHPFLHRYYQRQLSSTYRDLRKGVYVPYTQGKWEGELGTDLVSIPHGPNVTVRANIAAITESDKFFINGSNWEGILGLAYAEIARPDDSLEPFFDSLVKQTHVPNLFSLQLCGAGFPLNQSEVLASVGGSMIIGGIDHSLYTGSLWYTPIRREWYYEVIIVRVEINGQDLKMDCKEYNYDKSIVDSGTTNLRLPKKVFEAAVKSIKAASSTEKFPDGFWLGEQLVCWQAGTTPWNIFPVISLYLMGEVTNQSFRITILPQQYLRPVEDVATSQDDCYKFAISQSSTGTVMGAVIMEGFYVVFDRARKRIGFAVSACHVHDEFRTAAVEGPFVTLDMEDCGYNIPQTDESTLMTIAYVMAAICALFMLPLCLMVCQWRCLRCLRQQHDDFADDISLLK

`CCc1cc(C2(c3cccc(-c4cncnc4)c3)N=C(N)N(C)C2=O)cs1` (centres unmarked) [Example 29]: the melting point was 144 to 146 °C. The IC50 in data set [1] lay within 10 to 100 nM.
Take `CN1C(=O)C(c2cccc(-c3cccc(F)c3F)c2)(c2cnn(CC(F)(F)F)c2)N=C1N` (centres unmarked) [Example 87]: the melting point fell in the range of 103 to 105 °C. The IC50 in data set [1] lay in the range of 10 to 100 nM.
In the same order, the values of `CN1C(=O)C(c2cccc(-c3cc(F)cnc3Cl)c2)(c2cc(C#N)n(C)c2)N=C1N` (centres unmarked) [Example 227] are > 225 °C and 110 to 1000 nM.
The compound `CCC1(c2cc(C3(c4cccc(-c5cccnc5F)c4)N=C(N)N(C)C3=O)cs2)OCCO1` (centres unmarked) [Example 113] returned a melting point of 93 to 103 °C.
Compound `CCCCOc1cccc(C2(c3cc(C(=O)CC)n(CC)c3)N=C(N)N(C)C2=O)c1` (centres unmarked) [Example 136] showed a melting point of 76 °C. Further, the IC50 in data set [1] lay in the range of 110 to 1000 nM.
In the same order, the values of `CCOc1cccc(-c2cccc(C3(c4cnn(CC(F)(F)F)c4)N=C(N)N(C)C3=O)c2)c1` (centres unmarked) [Example 83] are 88 to 90 °C and 10 to 100 nM.
Compound `CC(C)n1cc(C2(c3ccc(F)c(-c4cccnc4F)c3)N=C(N)N(C)C2=O)cn1` (centres unmarked) [Example 97] gave a melting point of 115 to 117 °C. Further, in data set [1], the IC50 is 10 to 100 nM.
In the same order, the values of `CCN(CC)Cc1cc(C2(c3cccc(-c4cccnc4F)c3)N=C(N)N(C)C2=O)cn1CCF` (centres unmarked) [Example 235, 2-Amino-5-[5-[(diethylamino)methyl]-1-(2-fluoroethyl)-1H-pyrrol-3-yl]-5-[3-(2-fluoropyridin-3-yl)phenyl]-3-methyl-3,5-dihydro-4H-imidazol-4-one] are 121 to 140 °C and > 1000 nM.
The compound `Cc1nc(F)ccc1-c1cccc(C2(c3ccsc3)N=C(N)N(C)C2=O)c1` (centres unmarked) [Example 36] registered a melting point of 140 °C. In data set [1], the IC50 is > 1000 nM.
In the same order, the values of `CN1C(=O)C(c2ccc(OC(F)F)cc2)(c2cnn(CC(F)(F)F)c2)N=C1N` (centres unmarked) [Example 74] are 70 to 72 °C and > 1000 nM.
`CCCOc1cccc(C2(c3cccs3)N=C(N)N(C)C2=O)c1` (centres unmarked) [Example 141, 2-Amino-3-methyl-5-(3-propoxyphenyl)-5-thien-2-yl-3,5-dihydro-4H-imidazol-4-one] came in with a melting point of 79 to 81 °C. The compound further registered a concentration for half-maximal inhibition (IC50) in data set [1] of 110 to 1000 nM.
Consider `CCC(C)C(=O)c1cc(C2(c3cccc(-c4cccnc4F)c3)N=C(N)N(C)C2=O)cn1CC` (centres unmarked) [Example 174], for which the melting point fell in the range of 210 to 211 °C. This compound gave an IC50 in data set [1] of 10 to 100 nM.
In the same order, the values of `COC(=O)c1cc(C2(c3cccc(-c4cccc(OC)c4)c3)N=C(N)N(C)C2=O)cn1CCF` (centres unmarked) [Example 196] are 121 to 124 °C and 10 to 100 nM.
In the same order, the values of `CCNC(=O)c1cc(C2(c3cccc(-c4cccnc4F)c3)N=C(N)N(C)C2=O)cn1CC` (centres unmarked) [Example 158] are 132 to 135 °C and 10 to 100 nM.
In the same order, the values of `CCC(=O)c1cc(C2(c3cccc(-c4cccnc4F)c3)N=C(N)N(C)C2=O)cn1CC(C)C` (centres unmarked) [Example 179] are 98 to 102 °C and 10 to 100 nM.
With `CCc1cc(C2(c3cccc(-c4cncnc4)c3)N=C(N)N(C)C2=O)c(C)s1` (centres unmarked) [Example 31], the melting point fell in the range of 128 to 134 °C. This compound displayed an IC50 in data set [1] of 110 to 1000 nM.
In the same order, the values of `CCC1(c2cc(C3(c4cccc(-c5cncnc5)c4)N=C(N)N(C)C3=O)cs2)OCCO1` (centres unmarked) [Example 114] are 105 to 112 °C and 10 to 100 nM.
Turning to `COC(=O)c1cc(C2(c3cccc(-c4ccc(F)nc4)c3)N=C(N)N(C)C2=O)cn1CCF` (centres unmarked) [Example 191], the melting point was 206 to 210 °C. In data set [1], this compound showed an IC50 of 10 to 100 nM.
With `CCC(=O)c1cc(C2(c3cccc(-c4cccnc4F)c3)N=C(N)N(C)C2=O)cs1` (centres unmarked) [Example 115, 2-Amino-5-[3-(2-fluoro-pyridin-3-yl)-phenyl]-3-methyl-5-(5-propionyl-thiophen-3-yl)-3,5-dihydro-imidazol-4-one], the melting point was 98 to 112 °C.
On the same count and under the same terms, the same measure for `CN1C(=O)C(c2cccc(Br)c2)(c2cnn(CC(F)(F)F)c2)N=C1N` (centres unmarked) [Example 81, 2-amino-5-(3-bromophenyl)-3-methyl-5-[1-(2,2,2-trifluoroethyl)-1H-pyrazol-4-yl]-3,5-dihydro-4H-imidazol-4-one]: 80 to 82 °C; for `CCn1ccc(C2(c3cccc(Br)c3)N=C(N)N(C)C2=O)c1` (centres unmarked) [Example 50, 2-Amino-5-(3-bromophenyl)-5-(1-ethyl-1H-pyrrol-3-yl)-3-methyl-3,5-dihydro-4H-imidazol-4-one]: 138 to 140 °C; for `CC(C)n1cc(C2(c3ccc(F)c(Br)c3)N=C(N)N(C)C2=O)cn1` (centres unmarked) [Example 95, 2-amino-5-(3-bromo-4-fluorophenyl)-5-(1-isopropyl-1H-pyrazol-4-yl)-3-methyl-3,5-dihydro-4H-imidazol-4-one]: 80 to 82 °C.
On the same count and under the same terms, the same measure for `CN1C(=O)C(c2cccc(Br)c2)(c2ccn(CC(F)(F)F)c2)N=C1N` (centres unmarked) [Example 51, 2-Amino-5-(3-bromophenyl)-3-methyl-5-[1-(2,2,2-trifluoroethyl)-1H-pyrrol-3-yl]-3,5-dihydro-4H-imidazol-4-one]: 74 to 76 °C.
Same read-out and setting: the same measure for `CCn1cc(C2(c3cccc(-c4cccnc4F)c3)N=C(N)N(C)C2=O)cc1/C=N/OC` (centres unmarked) (as salt: hydrochloride) [Example 241, 4-[2-Amino-4-[3-(2-fluoropyridin-3-yl)phenyl]-1-methyl-5-oxo-4,5-dihydro-1H-imidazol-4-yl]-1-ethyl-1H-pyrrole-2-carbaldehyde O-methyloxime hydrochloride]: 190 to 193 °C; for `CC(C)n1cc(C2(c3ccc(F)c(-c4cncnc4)c3)N=C(N)N(C)C2=O)cn1` (centres unmarked) [Example 96]: 110 to 113 °C.
With `CCn1cc([C@]2(c3cccc(-c4cccnc4F)c3)N=C(N)N(C)C2=O)cc1C(=O)C1CC1` [243 A], the IC50 in data set [1] was 10 to 100 nM.
In turn, `CN1C(=O)C(c2cccc(-c3cncnc3)c2)(c2cnn(C)c2)N=C1N` (centres unmarked) [Example 1, 2-Amino-3-methyl-5-(1-methyl-1H-pyrazol-4-yl)-5-(3-pyrimidin-5-ylphenyl)-3,5-dihydro-4-imidazol-4-one] had an IC50 in data set [1] of 110 to 1000 nM.
As to `CCn1cc(C2(c3cccc(-c4cccnc4F)c3)N=C(N)N(C)C2=O)cc1/C=N/OC` (centres unmarked) [Example 241, 4-[2-Amino-4-[3-(2-fluoropyridin-3-yl)phenyl]-1-methyl-5-oxo-4,5-dihydro-1H-imidazol-4-yl]-1-ethyl-1H-pyrrole-2-carbaldehyde O-methyloxime hydrochloride], the IC50 in data set [1] fell in the range of 10 to 100 nM.
For `COC(=O)c1cc([C@]2(c3ccc(F)c(-c4cncnc4)c3)N=C(N)N(C)C2=O)cn1CC(F)(F)F` [258 A], the IC50 in data set [1] lay within 10 to 100 nM.
Same read-out and setting: the same measure for `COC(=O)c1cc([C@]2(c3cccc(-c4cccnc4F)c3)N=C(N)N(C)C2=O)cn1CCF` [257 A]: 10 to 100 nM.
Same read-out and setting: the same measure for `COC(=O)c1cc([C@@]2(c3ccc(F)c(-c4cccnc4F)c3)N=C(N)N(C)C2=O)cn1CCF` [Example 184B, Methyl 4-{(4R)-2-amino-4-[4-fluoro-3-(2-fluoropyridin-3-yl)phenyl]-1-methyl-5-oxo-4,5-dihydro-1H-imidazol-4-yl}-1-(2-fluoroethyl)-1H-pyrrole-2-carboxylate]: 110 to 1000 nM; for `CCn1cc([C@@]2(c3cccc(-c4cccnc4F)c3)N=C(N)N(C)C2=O)cn1` [Example 44A, (5R)-2-Amino-5-(1-ethyl-1H-pyrazol-4-yl)-5-[3-(2-fluoropyridin-3-yl)phenyl]-3-methyl-3,5-dihydro-4H-imidazol-4-one]: > 1000 nM; for `CC(=O)Cc1cc([C@]2(c3cccc(-c4cccnc4F)c3)N=C(N)N(C)C2=O)cn1CCCF` [Example 248, (5S)-2-Amino-5-[1-(3-fluoropropyl)-5-(2-oxopropyl)-1H-pyrrol-3-yl]-5-[3-(2-fluoropyridin-3-yl)phenyl]-3-methyl-3,5-dihydro-4H-imidazol-4-one]: 10 to 100 nM.
